We go through eight compounds from PMC8620390, “New Multi-Targeted Antiproliferative Agents: Design and Synthesis of IC261-Based Oxindoles as Potential Tubulin, CK1 and EGFR Inhibitors” (Pharmaceuticals, 2021).

Broadly, the inhibition is the share of the control response that was lost under treatment. The term IC50 denotes the concentration at which inhibition is half-maximal. What is called melting point is the temperature, or range, at which the solid turns liquid.

One series concerns PC-3. The experiment in a line: Two-dose antiproliferative screening, SRB assay, PC-3. Format: cell-based. Particulars: triplicates; for inhibition at 1 µM / inhibition at 10 µM: Homo sapiens, PC-3, 72 h; for inhibition at 1 µM: read-out: Growth Inhibition (%) PC-3 1 μM Average; for inhibition at 10 µM: read-out: Growth Inhibition (%) PC-3 10 μM Average. The procedure: (§1) MCF-7(breast adenocarcinoma), PC-3 (prostate cancer) and COLO-205 (colorectal cancer) were obtained from Nawah Scientific inc., (Mokatam, Cairo, Egypt). Cells were maintained in Dulbecco’s Modified Eagle’s media (DMEM media) supplemented with […] of streptomycin, 100 units/mL of penicillin and 10% of heat-inactivated fetal bovine serum in humidified, 5% (v/v) CO2 atmosphere at 37 °C.
(§2) Cell viability was assessed by the sulforhodamine B (SRB) assay. Aliquots of cell suspension (5 × 10^3 cells, 100 μL) were transferred into 96 well plates and incubated in complete media for 24 h. Cells were treated with another aliquot media (100 μL) containing compounds 3a–f, 4a–f, 6a–f, 7a–f, 9a–b at concentrations of 1 and 10 μM). After 72 h of drug exposure, cells were fixed by replacing media with trichloroacetic acid (TCA, 10%, 150 μL) and incubated at 4 °C for 1 h. The TCA solution was removed, and the cells were washed five times with distilled water. Aliquots of SRB solution (0.4%w/v, 70 μL) were added and incubated in a dark place at room temperature for 10 min. Plates were washed three times with 1% acetic acid and allowed to air dry overnight. Then, a solution of TRIS base and TRIS HCl (TRIS buffer, 10 mM, 150 μL) was added to dissolve protein bound SRB stain. The absorbance was measured at 540 nm using BMGLABTECH®–FLUOstar omega micro-plate reader (Ortenberg, Germany).
(In SRB staining, fixed cells bind dye roughly in proportion to their protein.)

In series [1] the test system is COLO-205. The series is described as follows: Two-dose antiproliferative screening, SRB assay, COLO-205. It counts as cell-based, human. To be noted: triplicates; for inhibition at 1 µM / inhibition at 10 µM: Homo sapiens, COLO 205, 72 h; for inhibition at 1 µM: read-out: Growth Inhibition (%) COLO-205 1 μM Average; for inhibition at 10 µM: read-out: Growth Inhibition (%) COLO-205 10 μM Average; for Growth Inhibition (%) COLO-205 10 μM Average: 72 h. As to the method:
as §1, §2

The test system of another series is MCF-7. The experiment in a line: Two-dose antiproliferative screening, SRB assay, MCF-7. It counts as cell-based. Particulars: Homo sapiens, MCF7, 72 h, triplicates; for inhibition at 1 µM: read-out: Growth Inhibition (%) MCF-7 1 μM Average; for inhibition at 10 µM: read-out: Growth Inhibition (%) MCF-7 10 μM Average. As to the method:
as §1, §2

The subject of series [2] is COLO-205. The experiment in a line: IC50 against COLO-205, SRB assay. Format: cell-based. To be noted: Homo sapiens, 0.001–100 μM. As to the method:
as §2
The same procedures used to screen two-dose anticancer activities were applied in determining IC50 values against COLO-205 using SRB assay. Cells were maintained at Roswell Park Memorial Institute media (RPMI media). The test was performed using 0.001–100 μM of compounds 4a (IC261), 4b, 4d, 4e, 6e and 6f. IC50 values were calculated using the equation for Boltzman sigmoidal concentration–response curve using the nonlinear regression fitting models by GraphPad, Prism version 5 (GraphPad Software Inc., La Jolla, CA, USA).

The subject of series [3] is CK1. To be noted: cited from earlier work.
For series [4], the target named is CK1. The series is described as follows: Casein Kinase 1 (CK1) 33P-ATP assay. Format: biochemical. The procedure: The active CK1, kinase assay buffer, substrate solution and kinase dilution buffer were thawed on ice (^33P-ATP assay Cocktail). In a precooled microcentrifuge tube, 10 μL of kinase solution, 5 μL of substrate solution and 5 μL of cold water (4 °C) were added, then a blank control was set up. Each reaction was initiated by adding 5 μL of ^33P-ATP assay cocktail then incubated for 15 min in a water bath (30 °C), then 20 μL of the reaction mixture were spotted onto an individually precut strip of phosphocellulose P81 paper and allowed to air dry followed by washing using 1% H2SO4 with constant gentle stirring. A radioactive control was set up then 5 μL of γ-^33P-ATP assay cocktail was spotted on P81 paper, the sample was allowed to air dry for 2 min then the radioactivity count was recorded.

The target of the next series is T1, EGFR (Homo sapiens, UniProt P00533).
T1 construct: enough purified recombinant EGFR enzyme, EGFR substrate, ATP, and kinase assay buffer; purchased Sigma Aldrich
The series is described as follows: EGFR kinase assay kit (Kinase-Glo MAX). It counts as biochemical. Particulars: EGFR-TK kinase kit; read-out: EGFR Inhibition IC50 (converted). As to the method: The EGFR Kinase Assay Kit (Sigma Aldrich, St. Louis, […], USA) is designed to measure EGFR Kinase activity for screening and profiling applications using Kinase-Glo® MAX as a detection reagent. The EGFR Kinase Assay Kit (Sigma Aldrich, St. Louis, […], USA) comes in a convenient 96-well format, with enough purified recombinant EGFR enzyme, EGFR substrate, ATP, and kinase assay buffer for 100 enzyme reactions. The master mixture (25 μL per well) was prepared out of Kinase assay buffer (6 μL), ATP (500 μM, 1 μL), PTK substrate (50×, 1 μL) and water (17 μL) and added to each well. Inhibitor solution was made by dissolving 4b in a liquid labelled” inhibitor buffer”. An inhibitor solution (5 μL) was then added to each well, labelled as “Test Inhibitor”. For “Positive Control” and “Blank”, add 5 μL inhibitor buffer). EGFR was thawed on ice. Its tube was spun briefly to recover the full content of the tube. The enzyme was diluted with 1× Kinase assay buffer enzyme to 1 ng/μL. The reaction was initiated by adding 20 μL of diluted EGFR enzyme to the wells designated “Positive Control” and “Test Inhibitor Control”. The plate was incubated at 30 °C for 40 min. After the 40-min reaction, the Kinase-Glo Max (50 μL) reagent was added to each well. The plate was covered with aluminum foil, incubated at room temperature for 15 min and the luminescence was measured using the microplate reader.
On the technique in general: Kinase-Glo reads ATP consumption through a luciferase reaction.

T1 sequence (P00533 25-1210): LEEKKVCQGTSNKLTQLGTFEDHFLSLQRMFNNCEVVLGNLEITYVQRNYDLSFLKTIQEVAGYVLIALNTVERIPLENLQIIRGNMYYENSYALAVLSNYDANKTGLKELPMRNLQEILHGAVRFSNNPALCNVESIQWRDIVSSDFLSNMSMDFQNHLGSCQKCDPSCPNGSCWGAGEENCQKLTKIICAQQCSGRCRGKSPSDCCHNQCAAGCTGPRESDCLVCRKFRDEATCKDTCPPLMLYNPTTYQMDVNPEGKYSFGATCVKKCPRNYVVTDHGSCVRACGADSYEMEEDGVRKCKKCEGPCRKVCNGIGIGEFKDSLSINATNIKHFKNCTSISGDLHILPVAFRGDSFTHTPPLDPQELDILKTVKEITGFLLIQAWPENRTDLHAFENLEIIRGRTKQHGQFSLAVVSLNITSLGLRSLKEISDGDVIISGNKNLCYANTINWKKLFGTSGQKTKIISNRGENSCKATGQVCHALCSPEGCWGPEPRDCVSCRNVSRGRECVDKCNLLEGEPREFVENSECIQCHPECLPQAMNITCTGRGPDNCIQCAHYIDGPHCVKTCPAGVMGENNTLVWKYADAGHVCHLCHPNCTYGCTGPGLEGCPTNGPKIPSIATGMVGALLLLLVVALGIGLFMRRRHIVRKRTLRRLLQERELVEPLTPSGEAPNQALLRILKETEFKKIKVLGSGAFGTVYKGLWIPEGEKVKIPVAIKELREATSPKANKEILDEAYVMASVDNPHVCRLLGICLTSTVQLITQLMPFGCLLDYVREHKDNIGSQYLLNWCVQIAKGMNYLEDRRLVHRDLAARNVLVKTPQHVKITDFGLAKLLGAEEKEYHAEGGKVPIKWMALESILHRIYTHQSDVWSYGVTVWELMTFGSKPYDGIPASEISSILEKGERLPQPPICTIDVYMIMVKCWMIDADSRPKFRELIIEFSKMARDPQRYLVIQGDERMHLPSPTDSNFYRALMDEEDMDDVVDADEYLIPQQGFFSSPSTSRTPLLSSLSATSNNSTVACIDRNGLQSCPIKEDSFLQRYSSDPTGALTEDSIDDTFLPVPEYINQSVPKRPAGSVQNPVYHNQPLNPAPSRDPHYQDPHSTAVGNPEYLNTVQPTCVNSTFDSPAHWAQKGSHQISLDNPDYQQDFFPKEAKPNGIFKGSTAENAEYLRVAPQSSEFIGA

In the case of `COc1cc(/C=C2/C(=O)N(Cc3ccc(Cl)cc3)c3cc(Cl)ccc32)cc(OC)c1OC` [Compound 6e, (E)-6-chloro-1-(4-chlorobenzyl)-3-(3,4,5-trimethoxybenzylidene) indolin-2-one], the inhibition at 1 µM in the series on PC-3 (1 μM) came to 3.22%; with COLO-205 [1], 6.49%; in the series with MCF-7, 3.69%. For the same compound, the values for the inhibition at 10 µM in the series on PC-3, in the series on COLO-205 [1] and in the series on MCF-7 were 5.65%, 72.6% and 6%, respectively. Half-maximal inhibition in the series with COLO-205 [2] (IC50) required 15300 nM.
Turning to `CCOC(=O)CN1C(=O)/C(=C/c2cc(OC)c(OC)c(OC)c2)c2ccc(Cl)cc21` [Compound 9b, Ethyl (E)-2-(6-chloro-2-oxo-3-(3,4,5-trimethoxybenzylidene)indolin-1-yl)acetate], the melting point was 60 to 62 °C. Also, the inhibition at 1 µM in the series with PC-3 (1 μM) is 1.66%. In addition, the inhibition at 10 µM in the series with PC-3 was determined as 13.2%. In addition, in the series with COLO-205 [1], the inhibition at 1 µM was found to be 35.1% and the inhibition at 10 µM was found to be 40.9%. Besides, in the series on MCF-7, the inhibition at 1 µM is 2.3% and the inhibition at 10 µM was 6.82%.
In the case of `COc1cc(OC)c(/C=C2/C(=O)Nc3ccc(F)cc32)c(OC)c1` [Compound 4d, (E)-5-fluoro-3-(2,4,6-trimethoxybenzylidene)indolin-2-one], the melting point was in the range of 212 to 215 °C. Moreover, in the series with PC-3 (1 μM), the inhibition at 1 µM came to 23.8%. The inhibition at 10 µM with PC-3 was found to be 58%. Moreover, in the series on COLO-205 [1], the “Growth Inhibition (%) COLO-205 10 μM Average” value is 64.01%, the inhibition at 1 µM is 9.69% and the inhibition at 10 µM came out at 64%. In addition, in the series with MCF-7, the inhibition at 1 µM amounted to 10% and the inhibition at 10 µM is 66.1%. The compound further returned an IC50 in the series on COLO-205 [2] of 1000 nM.
For `Nc1ccc2c(c1)/C(=C1/Nc3ccccc3/C1=N\O)C(=O)N2` [X], in the series with CK1 [3], the “inhibitory activity against CK1” value was 0.13 µM.
`COc1cc(/C=C2/C(=O)N(Cc3ccc(F)cc3)c3cc(Cl)ccc32)cc(OC)c1OC` [Compound 6f, (E)-6-chloro-1-(4-fluorobenzyl)-3-(3,4,5-trimethoxybenzylidene) indolin-2-one]: the inhibition at 1 µM in the series on PC-3 (1 μM) turned out to be 0.4%; in the series on COLO-205 [1], 3.67%; in the series on MCF-7, 3.56%. Moreover, the inhibition at 10 µM in the series on PC-3 amounted to 23.4%; in the series on COLO-205 [1], 63.8%; with MCF-7, 29.9%. The IC50 in the series with COLO-205 [2] was 10600 nM.
The compound `COc1cc(/C=C2/C(=O)N(CC(=O)OC(C)(C)C)c3cc(Cl)ccc32)cc(OC)c1OC` [Compound 9a, t-Butyl (E)-2-(6-chloro-2-oxo-3-(3,4,5-trimethoxybenzylidene)indolin-1-yl)acetate] showed a melting point of 82 to 85 °C. The inhibition at 1 µM in the series on PC-3 (1 μM) stood at 1.19%. Further, the inhibition at 10 µM with PC-3 amounted to 5.56%. Also, in the series with COLO-205 [1], the inhibition at 1 µM stood at 3.05% and the inhibition at 10 µM was 13%. Besides, in the series with MCF-7, the inhibition at 1 µM is 2.11% and the inhibition at 10 µM stood at 7.11%.
Consider `COc1cc(OC)c(/C=C2/C(=O)Nc3ccc(Cl)cc32)c(OC)c1` [Compound 4c, (E)-5-chloro-3-(2,4,6-trimethoxybenzylidene)indolin-2-one], for which the melting point fell in the range of 244 to 247 °C. The inhibition at 1 µM with PC-3 (1 μM) worked out at 28.9%. For the same compound, the inhibition at 10 µM in the series with PC-3 was 62.2%. In the series on COLO-205 [1], the “Growth Inhibition (%) COLO-205 10 μM Average” value came out at 58.44%, the inhibition at 1 µM came out at 2.67% and the inhibition at 10 µM was 58%. For the same compound, in the series with MCF-7, the inhibition at 1 µM is 17.9% and the inhibition at 10 µM was 65.1%.
Compound `COc1cc(OC)c(/C=C2/C(=O)Nc3ccc(OC)cc32)c(OC)c1` [Compound 4e, (E)-5-methoxy-3-(2,4,6-trimethoxybenzylidene)indolin-2-one] had a melting point of 221 to 223 °C. In the series on PC-3 (1 μM, 72 h), the “Growth Inhibition (%) PC-3 1 μM Average” value worked out at 42.36%. Further, the inhibition at 1 µM in the series on PC-3 (1 μM) came to 43%. The inhibition at 10 µM in the series with PC-3 was found to be 63.3%. Further, at CK1 [4], the “Casein Kinase I Inhibition IC50” value was determined as 13.08 µg/mL. For the same compound, the “fold less potent on CK1 than compound 4b” value with CK1 [4] (ratio of CK1 IC50 vs 4b) is “about 6.8 fold”. In the series on COLO-205 [1], the inhibition at 1 µM was found to be 8.05% and the inhibition at 10 µM turned out to be 31.9%. In addition, the IC50 at EGFR is 1170 nM. In the series on MCF-7, the inhibition at 1 µM was determined as 34.5% and the inhibition at 10 µM worked out at 68.9%. This compound also showed a half-maximal inhibitory concentration (IC50) in the series on COLO-205 [2] of 300 nM.
